Measurements: US20260001889A1, “COMPOSITIONS USEFUL FOR MODULATING SPLICING” (Skyhawk Therapeutics, Inc., priority 2022, published 2026)

Tests used:
[1] = tested on: ATXN3 transcripts containing exon 4; assay: ATXN3 Quantitative Splicing Assay (qPCR, E4E5 primers/probe); assay type: cell-based; conditions: Homo sapiens, SK-N-MC cells, compounds for 24 h
Procedure: Example 34: ATXN3 Quantitative Splicing Assay
Human neuroblastoma SK-N-MC cells were plated in 384-well plates at 20,000 cells/well. Twenty-four hours after plating, cells were treated with compounds for 24 h at appropriate concentrations ranging from 30 μM to 0.6 nM (0.300 DMSO). Treated cells were lysed in 15 μL of lysis buffer, and cDNA was synthesized using the Fast Advanced Cells-to-Ct kit. Two […] of each cDNA was used in qPCR reactions to confirm the exon 4 skipped transcripts of ATXN3. A second set of primers/probe E4E5 was used to detect the transcripts containing exon 4. The third set of primers/probe E8E9 was used to detect total gene level of ATXN3. The qPCR reactions were prepared in 384-well plates in 10 μL volume, using TaqMan™ Fast Advanced Master Mix with primers and probes shown in the table below. Reactions were run in a Quant Studio 6 qPCR instrument with default settings.
The primers and probes are listed below in Table 4.

[2] = tested on: total ATXN3 protein; assay: ATXN3 Total Protein Assay (Mesoscale Discovery, SK-N-MC cells); assay type: cell-based, Human; conditions: incubation for 48 hours, MSD assay
Procedure: Example 35: ATXN3 Total Protein Assay
Human neuroblastoma SK-N-MC cells were seeded at 10,000 cells/well in 384 well plates one day prior to compound treatment. The concentrations of compounds were tested at appropriate doses ranging from 30 μM to 0.6 nM. After incubation for 48 hours, the cells were lysed with 25 μL of lysis buffer containing protease inhibitors, and total ATXN3 protein levels were assessed by Mesoscale Discovery (MSD) assay developed with one pair of anti-ATXN3 antibodies. The capture and detect antibodies were raised in mouse and rabbit respectively. Anti-rabbit MSD-ST antibody was used for secondary antibody.
ATXN3 recombinant protein was used for standards. The readouts were captured with 35 μL of MSD read buffer and multi-array 384-well high binding plates.

[3] = tested on: ATXN3-HiBiT protein; assay: ATXN3 Total Protein Assay (Kelly-ATXN3-HiBiT luminescence); assay type: cell-based; conditions: Kelly-ATXN3-HiBiT cells, 48 h after addition of compound
Procedure, shortened: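 Endogenous ATXN3-HiBiT protein in knock-in Kelly neuroblastoma cells measured by lytic HiBiT luminescence 48 h post-compound (added 24 h after seeding 2000 cells/well). Values are fold changes relative to DMSO, with viability from a parallel CellTiter-Glo plate.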

With `N[C@H](Cc1oc2c(NCc3cccs3)cc(Cl)nc2c1Br)[C@H]1CCOC1` (single isomer, unassigned) [Compound 99] the IC50 [1] was 101 to 500 nM, the IC50 [2] was 101 to 500 nM and the EC50 [3] was 501 to 5000 nM.

`N[C@H](Cc1oc2c(NCc3cccs3)cc(Cl)nc2c1Br)[C@@H]1CCOC1` (single isomer, unassigned) [Compound 100] showed an IC50 [1] of 501 to 5000 nM, an IC50 [2] of 5000 to 10000 nM and an EC50 [3] of 10000 to 40000 nM.

Work on `N[C@@H](Cc1oc2c(NCc3cccs3)cc(Cl)nc2c1Br)[C@@H]1CCOC1` (single isomer, unassigned) [Compound 214] yielded an IC50 [1] of 501 to 5000 nM, an IC50 [2] of 501 to 5000 nM and an EC50 [3] of 501 to 5000 nM.

`N[C@@H](Cc1oc2c(NCc3cccs3)cc(Cl)nc2c1Br)[C@H]1CCOC1` (single isomer, unassigned) [Compound 215] showed an IC50 [1] of 10000 to 40000 nM, an IC50 [2] of 10000 to 40000 nM and an EC50 [3] of 10000 to 40000 nM.

For `Cc1c(C[C@H](C)N)oc2c(NCc3cccs3)cc(Cl)nc12` [Compound 11, 2-[(S)-2-aminopropyl]-5-chloro-3-methyl-7-thenylamino-1-oxa-4-azaindene], the IC50 [1] was 101 to 500 nM, the IC50 [2] was 101 to 500 nM and the EC50 [3] was 0.01 to 100 nM.

In the case of `CC[C@H](N)Cc1oc2c(NCc3cccs3)cc(Cl)nc2c1C` [Compound 13, 2-[(S)-2-aminobutyl]-5-chloro-3-methyl-7-thenylamino-1-oxa-4-azaindene], the IC50 [1] is reported as 101 to 500 nM, the IC50 [2] is reported as 101 to 500 nM and the EC50 [3] is reported as 101 to 500 nM.

Compound `Cc1c(C[C@@H](N)CC2CC2)oc2c(NCc3cccs3)cc(Cl)nc12` [Compound 14, 2-[(S)-2-amino-3-cyclopropylpropyl]-5-chloro-3-methyl-7-thenylamino-1-oxa-4-azaindene] has an IC50 [1] of 101 to 500 nM, an IC50 [2] of 101 to 500 nM and an EC50 [3] of 0.01 to 100 nM.

For `Cc1c(C[C@H](C)N)oc2c(NCc3cccs3)cc(C#N)nc12` [Compound 15, 2-[(2S)-2-aminopropyl]-3-methyl-7-[(thiophen-2-ylmethyl)amino]furo[3,2-b]pyridine-5-carbonitrile], the IC50 [1] was 501 to 5000 nM and the IC50 [2] was 501 to 5000 nM.

For `C[C@H](N)Cc1oc2c(NCc3cccs3)cc(Cl)nc2c1Cl` [Compound 16, 2-[(S)-2-aminopropyl]-3,5-dichloro-7-thenylamino-1-oxa-4-azaindene], the IC50 [1] was 0.01 to 100 nM, the IC50 [2] was 0.01 to 100 nM and the EC50 [3] was 0.01 to 100 nM.

`C[C@H](N)Cc1oc2c(NCc3cccs3)cc(Cl)nc2c1Br` [Compound 17, 2-[(S)-2-aminopropyl]-3-bromo-5-chloro-7-thenylamino-1-oxa-4-azaindene] showed an IC50 [1] of 0.01 to 100 nM, an IC50 [2] of 0.01 to 100 nM and an EC50 [3] of 0.01 to 100 nM.

For `C[C@H](N)Cc1oc2c(NCc3cccs3)cc(Cl)nc2c1C#N` [Compound 18, 2-[(S)-2-aminopropyl]-5-chloro-7-thenylamino-1-oxa-4-aza-3-indenecarbonitrile], the IC50 [1] was 10000 to 40000 nM, the IC50 [2] was 5000 to 10000 nM and the EC50 [3] was 5000 to 10000 nM.

For `C[C@H](N)Cc1oc2c(NCc3cccs3)cc(Cl)nc2c1C1CC1` [Compound 19, 2-[(2S)-2-aminopropyl]-5-chloro-3-cyclopropyl-N-(thiophen-2-ylmethyl)furo[3,2-b]pyridin-7-amine], the IC50 [1] was 101 to 500 nM and the IC50 [2] was 101 to 500 nM.

`N[C@@H](CO)Cc1oc2c(NCc3cccs3)cc(Cl)nc2c1Br` [Compound 20, (R)-2-amino-3-(3-bromo-5-chloro-7-thenylamino-1-oxa-4-aza-2-indenyl)-1-propanol] gave an IC50 [1] of 0.01 to 100 nM, an IC50 [2] of 0.01 to 100 nM and an EC50 [3] of 0.01 to 100 nM.

In the case of `N[C@@H](CO)Cc1oc2c(NCc3cccs3)cc(Cl)nc2c1Cl` [Compound 21, (R)-2-amino-3-(3,5-dichloro-7-thenylamino-1-oxa-4-aza-2-indenyl)-1-propanol], the IC50 [1] is reported as 0.01 to 100 nM, the IC50 [2] is reported as 0.01 to 100 nM and the EC50 [3] is reported as 0.01 to 100 nM.

`N[C@@H](CO)Cc1oc2c(NCc3ccco3)cc(Cl)nc2c1Br` [Compound 22, (R)-2-amino-3-[3-bromo-5-chloro-7-(furfurylamino)-1-oxa-4-aza-2-indenyl]-1-propanol] was tested, and the IC50 [1] was 0.01 to 100 nM, the IC50 [2] was 0.01 to 100 nM and the EC50 [3] was 0.01 to 100 nM.

Compound `N[C@@H](CO)Cc1oc2c(NCc3ccco3)cc(Cl)nc2c1Cl` [Compound 23, (R)-2-amino-3-[3,5-dichloro-7-(furfurylamino)-1-oxa-4-aza-2-indenyl]-1-propanol] has an IC50 [1] of 0.01 to 100 nM, an IC50 [2] of 0.01 to 100 nM and an EC50 [3] of 0.01 to 100 nM.

In the case of `N[C@H](Cc1oc2c(NCc3cccs3)cc(Cl)nc2c1Br)CC(F)(F)F` [Compound 24, 2-[(R)-2-amino-4,4,4-trifluorobutyl]-3-bromo-5-chloro-7-thenylamino-1-oxa-4-azaindene], the IC50 [1] is reported as 101 to 500 nM and the IC50 [2] is reported as 101 to 500 nM.

Compound `N[C@H](Cc1oc2c(NCc3cccs3)cc(Cl)nc2c1Cl)CC(F)(F)F` [Compound 25, 2-[(R)-2-amino-4,4,4-trifluorobutyl]-3,5-dichloro-7-thenylamino-1-oxa-4-azaindene] has an IC50 [1] of 501 to 5000 nM, an IC50 [2] of 501 to 5000 nM and an EC50 [3] of 101 to 500 nM.

With `N[C@H](Cc1oc2c(NCc3ccco3)cc(Cl)nc2c1Br)CC(F)(F)F` [Compound 26, 2-[(R)-2-amino-4,4,4-trifluorobutyl]-3-bromo-5-chloro-7-(furfurylamino)-1-oxa-4-azaindene] the IC50 [1] was 101 to 500 nM, the IC50 [2] was 101 to 500 nM and the EC50 [3] was 501 to 5000 nM.

In the case of `N[C@H](Cc1oc2c(NCc3ccco3)cc(Cl)nc2c1Cl)CC(F)(F)F` [Compound 27, 2-[(R)-2-amino-4,4,4-trifluorobutyl]-3,5-dichloro-7-(furfurylamino)-1-oxa-4-azaindene], the IC50 [1] is reported as 501 to 5000 nM, the IC50 [2] is reported as 501 to 5000 nM and the EC50 [3] is reported as 501 to 5000 nM.

In the case of `N[C@H](Cc1oc2c(NCc3cccs3)cc(Cl)nc2c1Cl)CC1CC1` [Compound 28, 2-[(S)-2-amino-3-cyclopropylpropyl]-3,5-dichloro-7-thenylamino-1-oxa-4-azaindene], the IC50 [1] is reported as 101 to 500 nM and the IC50 [2] is reported as 101 to 500 nM.

With `N[C@H](Cc1oc2c(NCc3ccco3)cc(Cl)nc2c1Cl)CC1CC1` [Compound 29, 2-[(S)-2-amino-3-cyclopropylpropyl]-3,5-dichloro-7-(furfurylamino)-1-oxa-4-azaindene] the IC50 [1] was 101 to 500 nM and the IC50 [2] was 101 to 500 nM.

For `Cc1c(C[C@@H](N)CC(F)(F)F)oc2c(NCc3cccs3)cc(Cl)nc12` [Compound 30, 2-[(R)-2-amino-4,4,4-trifluorobutyl]-5-chloro-3-methyl-7-thenylamino-1-oxa-4-azaindene], the IC50 [1] was 501 to 5000 nM and the IC50 [2] was 501 to 5000 nM.

Compound `Clc1cc(NCc2cccs2)c2occ(C3CC3)c2n1` [Compound 32, (thenyl)(5-chloro-3-cyclopropyl-1-oxa-4-aza-7-indenyl)amine] has an IC50 [1] of 501 to 5000 nM and an IC50 [2] of 501 to 5000 nM.

In the case of `COC[C@H](N)Cc1oc2c(NCc3ccco3)cc(Cl)nc2c1Br` [Compound 38, 2-[(R)-2-amino-3-methoxypropyl]-3-bromo-5-chloro-7-(furfurylamino)-1-oxa-4-azaindene], the IC50 [1] is reported as 101 to 500 nM and the IC50 [2] is reported as 0.01 to 100 nM.

Compound `N[C@@H](CF)Cc1oc2c(NCc3ccco3)cc(Cl)nc2c1Br` [Compound 39, 2-[(R)-2-amino-3-fluoropropyl]-3-bromo-5-chloro-7-(furfurylamino)-1-oxa-4-azaindene] has an IC50 [1] of 0.01 to 100 nM and an IC50 [2] of 0.01 to 100 nM.

Compound `Cc1c(C[C@@H](N)[C@@H](C)F)oc2c(NCc3cccs3)cc(Cl)nc12` [Compound 42, 2-[(2R,3R)-2-amino-3-fluorobutyl]-5-chloro-3-methyl-7-thenylamino-1-oxa-4-azaindene] has an IC50 [1] of 501 to 5000 nM and an IC50 [2] of 501 to 5000 nM.

`COC[C@H](N)Cc1oc2c(NCc3ccccc3)cc(Cl)nc2c1Br` [Compound 47, 2-[(R)-2-amino-3-methoxypropyl]-7-benzylamino-3-bromo-5-chloro-1-oxa-4-azaindene] was tested, and the IC50 [1] was 101 to 500 nM and the IC50 [2] was 101 to 500 nM.

In the case of `COC[C@H](N)Cc1oc2c(NCc3nccs3)cc(Cl)nc2c1Br` [Compound 49, 2-[(R)-2-amino-3-methoxypropyl]-3-bromo-5-chloro-7-{[(1,3-thiazol-2-yl)methyl]amino}-1-oxa-4-azaindene], the IC50 [1] is reported as 101 to 500 nM and the IC50 [2] is reported as 101 to 500 nM.

`C[C@H](N)Cc1oc2c(NCc3ccco3)cc(Cl)nc2c1Cl` [Compound 54, 2-[(S)-2-aminopropyl]-3,5-dichloro-7-(furfurylamino)-1-oxa-4-azaindene] gave an IC50 [1] of 101 to 500 nM and an IC50 [2] of 0.01 to 100 nM.

For `N[C@H](Cc1oc2c(NCc3cccs3)cc(Cl)nc2c1Br)CC1CC1` [Compound 55, 2-[(S)-2-amino-3-cyclopropylpropyl]-3-bromo-5-chloro-7-thenylamino-1-oxa-4-azaindene], the IC50 [1] was 0.01 to 100 nM and the IC50 [2] was 0.01 to 100 nM.

`N[C@H](Cc1oc2c(NCc3ccco3)cc(Cl)nc2c1Br)CC1CC1` [Compound 56, 2-[(S)-2-amino-3-cyclopropylpropyl]-3-bromo-5-chloro-7-(furfurylamino)-1-oxa-4-azaindene] showed an IC50 [1] of 0.01 to 100 nM and an IC50 [2] of 0.01 to 100 nM.
